Reference: patent publication US4459290A, “C-23-Modified derivatives of OMT, pharmaceutical compositions and method of use” (priority 1982, dated 1984)
Converted amounts (≈) assume the structure as drawn. Where two headings read alike, the source gives them in different places.

Key:
[1] = system: Streptococcus pyogenes C203; assay: MIC, standard agar-dilution assay (Table V); type: cell-based; conditions: Streptococcus pyogenes, C203
Protocol: (§1) The MIC's in Tables V and VI were determined by standard agar-dilution assays. The MIC's in Table VII were obtained using a conventional broth-dilution microtiter test.

[2] = system: Haemophilus influenzae Holt; assay: MIC, standard agar-dilution assay (Table V); type: cell-based; conditions: Haemophilus influenzae
Protocol: as §1

Escherichia coli TEM = assay: MIC, standard agar-dilution assay (Table V); type: cell-based; conditions: Escherichia coli; E. coli TEM; agar dilution; read-out: MIC
Protocol: as §1

[3] = system: Haemophilus influenzae R252; assay: MIC, standard agar-dilution assay (Table V); type: cell-based; conditions: Haemophilus influenzae, R252
Protocol: as §1

[4] = system: Streptococcus pyogenes C203; assay: ED50 in mice experimentally infected with S. pyogenes C203 (Table VIII); type: in vivo
Protocol: The C-23 modified derivatives of OMT of this invention have shown in vivo antimicrobial activity against experimental infections. When two doses of test compound were administered to mice experimentally infected with a gram-positive bacterium, S. pyogenes C203, the activity observed was measured as an ED50 value [effective dose in mg/kg to protect 50% of the test animals: see Warren Wick, et al., J. Bacteriol. 81, 233-235 (1961)].

[5] = system: Enterobacter aerogenes EB17; assay: MIC, standard agar-dilution assay (Table VI); type: cell-based; conditions: Klebsiella aerogenes; E. aerogenes EB17; agar dilution; read-out: MIC
Protocol: (§2) Especially noteworthy is the improved activity against gram-negative bacteria for several derivatives when compared to the activity of OMT. […] The MIC's in Tables V and VI were determined by standard agar-dilution assays. The MIC's in Table VII were obtained using a conventional broth-dilution microtiter test.

[6] = system: Pseudomonas aeruginosa X239; assay: MIC, standard agar-dilution assay (Table VI); type: cell-based; conditions: P. aeruginosa X239, agar dilution, read-out: MIC
Protocol: as §2

[7] = system: Pseudomonas aeruginosa X528; assay: MIC, standard agar-dilution assay (Table VI); type: cell-based; conditions: X528
Protocol: as §2

[8] = system: Enterobacter aerogenes C32; assay: MIC, standard agar-dilution assay (Table VI); type: cell-based; conditions: Klebsiella aerogenes; E. aerogenes C32; agar dilution; read-out: MIC
Protocol: as §2

Serratia marcescens SE3 = assay: MIC, standard agar-dilution assay (Table VI); type: cell-based; conditions: S. marcescens SE3, agar dilution, read-out: MIC
Protocol: as §2

Proteus inconstans PR33 = assay: MIC, standard agar-dilution assay (Table VI); type: cell-based; conditions: Providencia alcalifaciens; P. inconstans PR33; agar dilution; read-out: MIC
Protocol: as §2

[9] = system: Salmonella heidelberg X514; assay: MIC, standard agar-dilution assay (Table VI); type: cell-based; conditions: Salmonella enterica; S. heidelberg X514; agar dilution; read-out: MIC
Protocol: as §2

[10] = system: Citrobacter freundii CF17; assay: MIC, standard agar-dilution assay (Table VI); type: cell-based; conditions: C. freundii CF17, agar dilution, read-out: MIC
Protocol: as §2

Enterobacter cloacae EB5 = assay: MIC, standard agar-dilution assay (Table VI); type: cell-based; conditions: E. cloacae EB5, agar dilution, read-out: MIC
Protocol: as §2

[11] = system: Pseudomonas aeruginosa Ps18; assay: MIC, standard agar-dilution assay (Table VI); type: cell-based; conditions: P. aeruginosa Ps18, agar dilution, read-out: MIC
Protocol: as §2

Salmonella typhi 1335 = assay: MIC, standard agar-dilution assay (Table VI); type: cell-based; conditions: Salmonella enterica
Protocol: as §2

Serratia marcescens X99 = assay: MIC, standard agar-dilution assay (Table VI); type: cell-based; conditions: S. marcescens X99, agar dilution, read-out: MIC
Protocol: as §2

Proteus rettgeri C24 = assay: MIC, standard agar-dilution assay (Table VI); type: cell-based; conditions: Providencia rettgeri, P. rettgeri C24
Protocol: as §2

Proteus rettgeri PR7 = assay: MIC, standard agar-dilution assay (Table VI); type: cell-based; conditions: Providencia rettgeri; P. rettgeri PR7; agar dilution; read-out: MIC
Protocol: as §2

[12] = system: Klebsiella pneumoniae X68; assay: MIC, standard agar-dilution assay (Table VI); type: cell-based; conditions: K. pneumoniae X68, agar dilution, read-out: MIC
Protocol: as §2

Proteus morganii PR15 = assay: MIC, standard agar-dilution assay (Table VI); type: cell-based; conditions: Morganella morganii; P. morganii PR15; agar dilution; read-out: MIC
Protocol: as §2

[13] = system: Streptococcus pneumoniae Park I; assay: microbe, parasite or virus in culture; type: cell-based; conditions: Streptococcus pneumoniae
Protocol: as §2

Escherichia coli EC14 = assay: MIC, standard agar-dilution assay (Table V); type: cell-based; conditions: Escherichia coli; E. coli EC14; agar dilution; read-out: MIC
Protocol: as §2

Streptococcus Group 9960 = assay: MIC, standard agar-dilution assay (Table V); type: cell-based; conditions: GROUP9960
Protocol: as §2

[14] = system: Streptococcus Group D X66; assay: MIC, standard agar-dilution assay (Table V); type: cell-based
Protocol: as §2

[15] = system: Klebsiella pneumoniae KAE; assay: MIC, standard agar-dilution assay (Table V); type: cell-based; conditions: Klebsiella pneumoniae; K. pneumoniae KAE; agar dilution; read-out: MIC
Protocol: as §2

[16] = system: Staphylococcus aureus V41; assay: MIC, standard agar-dilution assay (Table V); type: cell-based; conditions: Staphylococcus aureus, V41
Protocol: as §2

[17] = system: Staphylococcus aureus S13E; assay: MIC, standard agar-dilution assay (Table V); type: cell-based; conditions: Staphylococcus aureus, S13E
Protocol: as §2

[18] = system: Staphylococcus aureus X400; assay: MIC, standard agar-dilution assay (Table V); type: cell-based; conditions: Staphylococcus aureus, X400
Protocol: as §2

Shigella sonnei N9 = assay: MIC, standard agar-dilution assay (Table V); type: cell-based
Protocol: as §2

[19] = system: Staphylococcus aureus X1.1; assay: MIC, standard agar-dilution assay (Table V); type: cell-based; conditions: Staphylococcus aureus, X1.1
Protocol: as §2

[20] = system: Staphylococcus epidermidis EPI1; assay: MIC, standard agar-dilution assay (Table V); type: cell-based; conditions: Staphylococcus epidermidis, EPI1
Protocol: as §2

[21] = system: Klebsiella pneumoniae X26; assay: MIC, standard agar-dilution assay (Table V); type: cell-based; conditions: Klebsiella pneumoniae; K. pneumoniae X26; agar dilution; read-out: MIC
Protocol: as §2

Escherichia coli N10 = assay: MIC, standard agar-dilution assay (Table V); type: cell-based; conditions: Escherichia coli; E. coli N10; agar dilution; read-out: MIC
Protocol: as §2

[22] = system: Staphylococcus epidermidis EPI2; assay: MIC, standard agar-dilution assay (Table V); type: cell-based; conditions: Staphylococcus epidermidis, EPI2
Protocol: as §2

Mycoplasma synoviae = assay: MIC, broth-dilution microtiter test (Table VII); type: cell-based; conditions: Mycoplasmopsis synoviae
Protocol: as §2

[23] = system: Pasteurella multocida 60A; assay: MIC, broth-dilution microtiter test (Table VII); type: cell-based; conditions: Pasteurella multocida, 60A
Protocol: as §2

[24] = system: Pasteurella hemolytica 41D; assay: MIC, broth-dilution microtiter test (Table VII); type: cell-based; conditions: Pasteurella, P. hemolytica 41D, read-out: MIC
Protocol: as §2

Streptococcus sp. 80 = assay: MIC, broth-dilution microtiter test (Table VII); type: cell-based; conditions: Streptococcus, SP.80
Protocol: as §2

Mycoplasma gallisepticum = assay: MIC, broth-dilution microtiter test (Table VII); type: cell-based; conditions: Mycoplasmoides gallisepticum
Protocol: as §2

Staphylococcus aureus = assay: MIC, broth-dilution microtiter test (Table VII); type: cell-based; conditions: Staphylococcus aureus
Protocol: as §2

Mycoplasma hyorhinis = assay: MIC, broth-dilution microtiter test (Table VII); type: cell-based; conditions: M. hyorhinis; broth-dilution microtiter; read-out: MIC
Protocol: as §2

[25] = system: Pasteurella multocida 40G; assay: MIC, broth-dilution microtiter test (Table VII); type: cell-based; conditions: Pasteurella multocida, 40G
Protocol: as §2

[26] = system: Pasteurella multocida 68C; assay: MIC, broth-dilution microtiter test (Table VII); type: cell-based; conditions: Pasteurella multocida, 68C
Protocol: as §2

[27] = system: Pasteurella hemolytica 22C; assay: MIC, broth-dilution microtiter test (Table VII); type: cell-based; conditions: Pasteurella, P. hemolytica 22C, read-out: MIC
Protocol: as §2

[28] = system: Pasteurella multocida 22A; assay: MIC, broth-dilution microtiter test (Table VII); type: cell-based; conditions: Pasteurella multocida, 22A
Protocol: as §2

[29] = system: Pasteurella multocida 17E; assay: MIC, broth-dilution microtiter test (Table VII); type: cell-based; conditions: Pasteurella multocida, 17E
Protocol: as §2

[30] = system: Pasteurella hemolytica 23C; assay: MIC, broth-dilution microtiter test (Table VII); type: cell-based; conditions: Pasteurella, P. hemolytica 23C, read-out: MIC
Protocol: as §2

## CCC1OC(=O)CC(O)C(C)C(OC2OC(C)C(O)C(N(C)C)C2O)C(CC=O)CC(C)C(=O)C=CC(C)(OC)C2CC12 (stereo not shown) [Compound 17]
[1]
  MIC: 1 µg/mL (≈ 1.63 µM)
[2]
  MIC: 8 µg/mL (≈ 13.1 µM)
Escherichia coli TEM
  MIC: 64 µg/mL (≈ 105 µM)
[3]
  MIC: 8 µg/mL (≈ 13.1 µM)
[4]; C203, po, read-out: ED50, Oral
  ED50: > 100 mg/kg
[4]; C203, sc, read-out: ED50, Subcutaneous
  ED50: > 25 mg/kg
[5]
  MIC: > 128 µg/mL
[6]
  MIC: > 128 µg/mL
[7]
  MIC: 64 µg/mL (≈ 105 µM)
[8]
  MIC: > 128 µg/mL
Serratia marcescens SE3
  MIC: > 128 µg/mL
Proteus inconstans PR33
  MIC: > 128 µg/mL
[9]
  MIC: > 128 µg/mL
[10]
  MIC: > 128 µg/mL
Enterobacter cloacae EB5
  MIC: > 128 µg/mL
[11]
  MIC: > 128 µg/mL
Salmonella typhi 1335
  MIC: > 128 µg/mL
Serratia marcescens X99
  MIC: > 128 µg/mL
Proteus rettgeri C24
  MIC: > 128 µg/mL
Proteus rettgeri PR7
  MIC: > 128 µg/mL
[12]
  MIC: > 128 µg/mL
Proteus morganii PR15
  MIC: > 128 µg/mL
[13]
  MIC: 0.25 µg/mL (≈ 0.409 µM)
Escherichia coli EC14
  MIC: > 128 µg/mL
Streptococcus Group 9960
  MIC: 2 µg/mL (≈ 3.27 µM)
[14]
  MIC: 2 µg/mL (≈ 3.27 µM)
[15]
  MIC: > 128 µg/mL
[16]
  MIC: 2 µg/mL (≈ 3.27 µM)
[17]
  MIC: 2 µg/mL (≈ 3.27 µM)
[18]
  MIC: 2 µg/mL (≈ 3.27 µM)
Shigella sonnei N9
  MIC: > 128 µg/mL
[19]
  MIC: 2 µg/mL (≈ 3.27 µM)
[20]
  MIC: 2 µg/mL (≈ 3.27 µM)
[21]
  MIC: 16 µg/mL (≈ 26.2 µM)
Escherichia coli N10
  MIC: > 128 µg/mL
[22]
  MIC: 2 µg/mL (≈ 3.27 µM)
Mycoplasma synoviae
  MIC: 1.56 µg/mL (≈ 2.55 µM)
[23]
  MIC: 12.5 µg/mL (≈ 20.4 µM)
[24]
  MIC: 25 µg/mL (≈ 40.9 µM)
Streptococcus sp. 80
  MIC: 1.56 µg/mL (≈ 2.55 µM)
Mycoplasma gallisepticum
  MIC: 0.78 µg/mL (≈ 1.27 µM)
Staphylococcus aureus
  MIC: 3.12 µg/mL (≈ 5.1 µM)
Mycoplasma hyorhinis
  MIC: 25 µg/mL (≈ 40.9 µM)
[25]
  MIC: 6.25 µg/mL (≈ 10.2 µM)
[26]
  MIC: 6.25 µg/mL (≈ 10.2 µM)
[27]
  MIC: 25 µg/mL (≈ 40.9 µM)
[28]
  MIC: 6.25 µg/mL (≈ 10.2 µM)
[29]
  MIC: 6.25 µg/mL (≈ 10.2 µM)
[30]
  MIC: 25 µg/mL (≈ 40.9 µM)
